Tests used:
living cells = details: cited from earlier work
Protocol: Long-term cell tracking have recently attracted intensive research interest, as it can provide meritorious information on cell therapy and its processes, as well as on studying the mechanism of cancer pathogenesis, invasion and metastasis. Consequently, the application of the fluorescent nanofibrous hydrogel in long-term cell tracking was investigated. The HeLa cancer cells were incubated with the nanofiber suspension for 4 h at 37 °C. Subsequently, the nanofiber-labeled cells were subcultured for designated time intervals, followed by imaging with CLSM.

4T1 tumor-bearing mice [1] = assay: Fluorescence imaging in tissue slices (CLSM); assay type: in vivo, BALB/c mice; details: intravenous, 0.1 mL of 100 μM, 0.5 h post-injection; vessels immunostained with PECAM-1
Protocol: At 0.5 h post administration of 0.1 mL of fluorescent nanofiber and precursor (100 μM), respectively, the mice were sacrificed. Subsequently, the tumor tissues were dissected, fixed in 4% paraformaldehyde for 2 h, incubated in 20% sucrose/PBS overnight and embedded in Optimal Cutting Temperature (OCT) compound (Tissue-Tek). Sections (6 μm) were immunostained with monoclonal antibody against platelet/endothelial cell adhesion molecule 1 (PECAM-1; PharMingen). Alexa Fluor 633-conjugated antirabbit antibody was used as secondary antibody (Molecular Probes). The cell nuclei were stained with DAPI. The tumor slices were imaged by CLSM with excitation wavelength at 405 nm, 543 nm, and 633 nm for DAPI, Rhodamine B, and PECAM-1, respectively. Furthermore, at 24 h post administration of nanofiber and precursor, respectively, the slices of various tissues including tumor, intestine, liver, spleen, kidney, and heart were obtained following the aforementioned experimental procedures. After that, the cell nuclei in the tissue slices were stained with DAPI, which was followed by imaging with CLSM.

HeLa cancer cells = assay: Cellular uptake and imaging by CLSM; assay type: cell-based, Human; details: Rhodamine B concentration 100 μM, 2 h, FBS-free DMEM, excitation 543 nm
Protocol: The HeLa cancer cells were cultured in confocal imaging chambers (LAB-TEK, Chambered Coverglass System) at 37 °C. After 80% confluence, the medium was removed and the adherent cells were washed twice with 1 × PBS buffer. The nanofiber and precursor in FBS-free DMEM medium at the Rhodamine B concentration of 100 μM were then added to the chamber, respectively. After incubation for 2 h, the cells were washed with 1 × PBS buffer and then imaged with confocal laser scanning microscope (CLSM, Zeiss LSM 410, Jena, Germany). The fluorescent signal from the Rhodamine B was collected upon excitation at 543 nm with a 560 nm longpass barrier filter. The HepG2 cancer cellular imaging was performed following the same experimental procedures.

4T1 tumor-bearing mice [2] = assay: Ex vivo fluorescence imaging of tumor and organs (Maestro system); details: intravenous, 0.1 mL of 100 μM, 24 h post-injection; excitation 523 nm
Protocol: Eight-week-old BALB/c mice were purchase from the Laboratory Animal Center of the Academy of Military Medical Sciences (Beijing, China). To establish tumor-bearing mouse model, a 4T1 cancer cell suspension containing 5 × 10^5 cells (50 μL) was injected subcutaneously into the mice at the right axillae.
4T1 tumor-bearing mice were intravenously administrated with 0.1 mL of fluorescent nanofiber or precursor (100 μM). At 24 h post-injection, the mice were sacrificed, the tissues including liver, kidney, spleen, intestine, heart, lung, stomach, skin, muscle and tumor were excised and imaged using the Maestro system (CRi, Inc., Woburn, USA). Light with a central wavelength of 523 nm was selected as the excitation source. Spectral imaging from 560 to 900 nm with 10 nm steps was carried out with an exposure time of 150 ms.

[3] = Gelation after GSH addition, vial inversion method; assay type: physicochemical
Protocol: Therefore, rheological measurement of the hydrogel was carried out.
5.0 mg of Rhodamine-GFFYE-CS-EE and 3 equiv. of Na2CO3 (in order to adjust the pH value of the final solution) were dissolved in 1.0 mL of PBS buffer (pH 7.4), and then 4 equiv. of reduced glutathione (GSH) was added to the solution. After about 20 minutes at room temperature, the self-supporting hydrogel was formed. Moreover, after dilution of the hydrogel with aqueous solution, the fluorescent nanofiber suspension was obtained.

Row | Compound | number of passages over which living cells can be traced (living cells) | red fluorescence in tumor slices (tumor accumulation) (4T1 tumor-bearing mice [1]) | cellular uptake / spatial distribution in cells (HeLa cancer cells) | ex vivo fluorescence signal in tumor (4T1 tumor-bearing mice [2]) | time of gelation process after addition of GSH ([3]; 37 °C) | time to hydrogel formation after addition of GSH ([3]; room temperature) [h]
1 | CC(=O)Oc1ccc2c(c1)Oc1cc(OC(C)=O)ccc1C21OC(=O)c2cc(CCl)ccc21 [CellTrackerTM Green CMFDA] | no more than 3 passages | – | – | – | – | –
2 | Rhodamine-GFFYE-CS-EE [precursor, Rhodamine B-capped self-assembling peptide with cystamine succinate disulfide linker and hydrophilic EE; precursor of the supramolecular hydrogel] | – | negligible red fluorescence | internalized in the cell cytoplasm | far weaker | around 30 min | 2

Reference: PMC4647837, “Biocompatible fluorescent supramolecular nanofibrous hydrogel for long-term cell tracking and tumor imaging applications” (Scientific Reports, 2015)
